# Reference: article PMC4992173, “Divergent synthesis and identification of the cellular targets of deoxyelephantopins” (Nature Communications, 2016)
# What was measured:
# recombinant IKKβ = recombinant IKKβ (Homo sapiens, UniProt O14920); assay: Labeling of recombinant IKK-β with probe 24c; format: binding; conditions: 10 µM 24c
# Cystatin-B (CSTB) = target: T1, Cystatin-B (CSTB) (Homo sapiens, UniProt P04080); assay: In situ competitive profiling in live MCF7 cells (LFQ): CSTB; format: cell-based; conditions: protein CSTB, 4 h, then 10 µM 24c, n=4
# T1 construct: endogenous in cells; host or cells: MCF7
# Source text: (§1) In our efforts to determine the direct molecular targets of deoxyelephantopin we first performed a gel-based competitive in situ proteomic profiling assay[41] […] While the greater conformational flexibility of probe 24c could potentially lead to more promiscuous target engagement relatively to deoxyelephantopin, it was favoured based on the fact that an alkyne moiety appended to the rigid scaffold of deoxyelephantopin may hinder some of its interactions. MCF7 cells were pretreated with various concentrations of deoxyelephantopin for 4 h, harvested, lysed and the lysates were treated with the fluorogenic probe 24c-Cy3 (10 μM; Supplementary Fig. 10). […] Furthermore, cells were pretreated with 20 μM concentration of deoxyelephantopin or 24c and the proteomic profiles were compared (Fig. 6b, Supplementary Fig. 11). Multiple bands were detected that were equally competed by both DEP and 24c, thus again confirming that 24c can be used as an acceptable clickable analogue of deoxyelephantopin in pulldown assays. Having established the optimal labelling conditions by SDS–PAGE, we next carried out a mass spectrometry-based competitive profiling assay[42] coupled with the method of stable isotope labelling of amino acids in culture (SILAC)[43]. […]
# (§2) Figure 6 Proteome-wide identification of deoxyelephantopin targets. […] Quantification was performed using label-free quantification (LFQ) method (n=4). […]
# [1] = target: T2, Protein HGH1 homolog (HGH1) (Homo sapiens, UniProt Q9BTY7); assay: In situ competitive profiling in live MCF7 cells (LFQ): HGH1; format: cell-based; conditions: 4 h, then 10 µM 24c, n=4
# T2 construct: 1,522 proteins were enriched from MCF7 cells by 10 μM probe 24c; endogenous in cells; host or cells: MCF7
# Source text: as §1, §2
# Heme oxygenase 2 (HMOX2) = target: T3, Heme oxygenase 2 (HMOX2) (Homo sapiens, UniProt P30519); assay: In situ competitive profiling in live MCF7 cells (LFQ): HMOX2; format: cell-based; conditions: protein HMOX2, 4 h, then 10 µM 24c, n=4
# T3 construct: endogenous in cells; host or cells: MCF7
# Source text: as §1, §2
# T2 sequence (Q9BTY7 whole entry): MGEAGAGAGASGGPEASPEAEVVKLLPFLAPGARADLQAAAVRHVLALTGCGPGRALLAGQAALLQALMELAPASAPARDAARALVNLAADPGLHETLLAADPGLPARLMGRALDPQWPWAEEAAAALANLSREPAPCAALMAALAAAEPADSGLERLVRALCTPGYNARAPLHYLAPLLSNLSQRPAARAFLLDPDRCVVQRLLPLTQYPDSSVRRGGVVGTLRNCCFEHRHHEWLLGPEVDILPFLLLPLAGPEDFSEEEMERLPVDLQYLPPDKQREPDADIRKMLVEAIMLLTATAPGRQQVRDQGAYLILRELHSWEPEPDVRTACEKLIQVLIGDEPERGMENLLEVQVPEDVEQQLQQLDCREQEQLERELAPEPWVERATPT
# T3 sequence (P30519 whole entry): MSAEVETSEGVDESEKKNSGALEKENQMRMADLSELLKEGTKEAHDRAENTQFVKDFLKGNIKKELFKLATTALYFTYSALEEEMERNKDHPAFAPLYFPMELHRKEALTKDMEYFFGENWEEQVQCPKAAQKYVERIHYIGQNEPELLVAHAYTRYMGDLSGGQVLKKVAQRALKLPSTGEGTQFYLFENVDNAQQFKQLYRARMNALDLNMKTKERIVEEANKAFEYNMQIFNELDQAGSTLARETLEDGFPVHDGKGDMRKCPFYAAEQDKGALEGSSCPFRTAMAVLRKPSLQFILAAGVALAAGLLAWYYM
# Sequence of recombinant IKKβ (O14920 whole entry): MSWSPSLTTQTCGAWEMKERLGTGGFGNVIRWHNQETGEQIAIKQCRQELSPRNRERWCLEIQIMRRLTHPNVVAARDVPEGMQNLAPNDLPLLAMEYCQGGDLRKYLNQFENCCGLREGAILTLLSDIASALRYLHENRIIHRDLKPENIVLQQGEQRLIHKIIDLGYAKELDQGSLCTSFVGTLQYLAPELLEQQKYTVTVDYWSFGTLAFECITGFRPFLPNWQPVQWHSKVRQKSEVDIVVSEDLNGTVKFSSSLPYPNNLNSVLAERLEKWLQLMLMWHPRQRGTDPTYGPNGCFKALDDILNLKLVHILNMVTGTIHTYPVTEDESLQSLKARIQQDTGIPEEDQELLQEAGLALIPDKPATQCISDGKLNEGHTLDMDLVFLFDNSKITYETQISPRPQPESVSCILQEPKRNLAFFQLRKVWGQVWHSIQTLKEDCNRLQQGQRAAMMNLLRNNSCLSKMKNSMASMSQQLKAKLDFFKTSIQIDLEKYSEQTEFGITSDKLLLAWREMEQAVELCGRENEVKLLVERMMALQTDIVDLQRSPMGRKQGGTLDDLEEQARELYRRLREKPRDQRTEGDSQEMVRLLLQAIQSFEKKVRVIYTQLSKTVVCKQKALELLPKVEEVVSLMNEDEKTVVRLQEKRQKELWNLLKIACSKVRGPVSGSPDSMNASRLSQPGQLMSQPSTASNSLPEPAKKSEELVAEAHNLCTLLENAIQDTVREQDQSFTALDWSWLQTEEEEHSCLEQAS
# T1 sequence (P04080 whole entry): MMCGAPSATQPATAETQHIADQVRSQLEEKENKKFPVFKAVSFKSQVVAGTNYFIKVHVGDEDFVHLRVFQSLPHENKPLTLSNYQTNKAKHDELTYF
Compound,covalent interaction with recombinant IKKβ (recombinant IKKβ),LFQ ratio 20 µM Deoxyelephantopin/DMSO with 24c (Cystatin-B (CSTB)),LFQ ratio 20 µM Deoxyelephantopin/DMSO with 24c [1],LFQ ratio 20 µM Deoxyelephantopin/DMSO with 24c (Heme oxygenase 2 (HMOX2))
C#CCC[C@H](OC(=O)C(=C)C)[C@H]1C(=C)C(=O)O[C@@H]1c1ccccc1 [24c],no evidence of covalent interaction,–,–,–
C=C(C)C(=O)O[C@H]1CC2=C[C@@H](C/C(C)=C/[C@H]3OC(=O)C(=C)[C@H]13)OC2=O [deoxyelephantopin],–,0.28,0.00,0.14
